Assay results taken from US7368567B2, “Arylsulfonyl benzodioxanes, benzoxazines and benzothiazines as 5-HT6 antagonists” (Roche Palo Alto LLC, priority 2004, dated 2008).

Columns and labels:
[1] = target: T1, recombinant human 5-HT2A receptor (Homo sapiens, UniProt P28223); test: Radioligand binding, [3H]Ketanserin competition in CHO-K1 cell membranes; conditions: [3H]Ketanserin displacement, 32° C., pH 7.4, read-out: pKi for the 5-HT2A receptor (converted)
T1 construct: expressed in transfected cells
Description: The binding activity of compounds of this invention in vitro was determined as follows. Duplicate determinations of 5-HT6 ligand affinity were made by competing for binding of [^3H]LSD in cell membranes derived from HEK293 cells stably expressing recombinant human 5-HT6 receptor. Duplicate determinations of 5-HT2A ligand affinity were made by competing for binding of [^3H]Ketanserin (3-(2-(4-(4-fluorobenzoyl)piperidinol)ethyl)-2,4(1H,3H)-quinazolinedione) in cell membranes derived from CHO—K1 cells stably expressing recombinant human 5-HT2A receptor. Membranes were prepared from HEK 293 cell lines by the method described by Monsma et al., Molecular Pharmacology, Vol. 43 pp. 320-327 (1993), and from CHO—K1 cell lines as described by Bonhaus et al., Br J Pharmacol. June;1 15(4):622-8 (1995).
For estimation of affinity at the 5-HT6 receptor, all determinations were made in assay buffer containing 50 mM Tris-HCl, 10 mM MgSO4, 0.5 mM EDTA, 1 mM ascorbic acid, pH 7.4 at 37° C., in a 250 microliter reaction volume. […]
Assay tubes containing [^3H] […] LSD or [^3H]Ketanserin were determined as radioactive counts per minute using Packard TopCount.
Displacement of [^3H]LSD or [^3H]Ketanserin from the binding sites was quantified by fitting concentration-binding data to a 4-parameter logistic equation: […]

T1 sequence (P28223 whole entry): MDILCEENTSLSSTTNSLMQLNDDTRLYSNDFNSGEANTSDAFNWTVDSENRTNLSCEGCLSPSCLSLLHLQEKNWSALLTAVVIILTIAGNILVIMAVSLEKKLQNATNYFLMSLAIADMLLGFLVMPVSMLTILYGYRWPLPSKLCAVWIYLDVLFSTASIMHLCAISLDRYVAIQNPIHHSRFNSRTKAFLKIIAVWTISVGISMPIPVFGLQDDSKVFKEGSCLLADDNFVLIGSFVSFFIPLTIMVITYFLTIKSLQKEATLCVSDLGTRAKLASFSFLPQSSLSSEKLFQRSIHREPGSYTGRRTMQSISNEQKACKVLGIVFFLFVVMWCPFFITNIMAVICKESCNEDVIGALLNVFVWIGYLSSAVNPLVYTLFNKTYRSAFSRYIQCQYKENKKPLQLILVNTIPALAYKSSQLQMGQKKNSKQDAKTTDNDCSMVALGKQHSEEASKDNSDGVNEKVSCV

- Ki [1]: ~18.2 nM
- melting point: 245.8 to 246.4 °C
Compound: CNC[C@H]1COc2ccc(S(=O)(=O)c3cccc(F)c3)cc2O1 [[7-(3-Fluoro-benzenesulfonyl)-2,3-dihydro-benzo[1,4]dioxin-2-(S)-ylmethyl]-methyl-amine]
